Test results as given in patent US8546366B2, “Method for inhibition of tumor cell growth using (22R)-5α-lanosta-8,24-dien-3β,15α,21-triol” (Mackay Memorial Hospital, priority 2011, dated 2013).

How the values were obtained:
[1] = tested on: caspase 3 and caspase 8; test: Caspase dependence of growth inhibition and caspase expression; type: cell-based
Excerpt: Thus, the compound may induce apoptosis in a caspase-independent pathway.

[2] = tested on: human pancreatic cancer cell line BxPC-3; test: MTT cell survival assay, pancreatic cancer cells; type: cell-based
Protocol: (§1) The test adopted the cell survival analysis (i.e., the MTT assay as described above). The purified compound was added into the culture media with human pancreatic cancer cell line BxPC-3 to test for tumor cell survival. This survival assay was carried out with the abovementioned MTT assay, wherein the pancreatic cancer cell line BxPc-3 was purchased from American Type Culture Collection (ATCC), the cell line originated from the epithelium of human pancreatic adenocarcinomas.
The human pancreatic cancer cell line BxPc-3 was cultivated in DMEM media containing 100 IU/ml penicillin (Invitrogen, Carlsbad, Calif.), 100 μg/ml streptomycin (Invitrogen, Carlsbad, Calif.), 2 mM glutamin (Invitrogen, Carlsbad, Calif.), and 10% fetal calf serum (Atlanta Biologicals, Norcross, Ga.). The proliferated cells were treated with the compound in the concentration of 0 (the control group), 5 and 10 μg/ml (the experimental group), respectively. The cells were incubated at 37° C. in a 5% CO2 incubator for 24-72 hours. 500 μg/ml of MTT was added into each well in the dark and incubated for 4 hours, followed by the addition of 500 μl of isopropanol to stop the reaction. The plates were read on an ELISA reader at wavelength of 570 nm to determine the cell survival rates. The results were reported as the average±(plus/minus) SEM (Standard Error in the Mean). […]

[3] = tested on: human hepatoma cell line HA22T/VGH; test: MTT cell survival assay, hepatoma cells; type: cell-based; details: 5 μg/ml, 72 hours
Protocol: The test adopted the cell survival analysis (i.e., the MTT assay as described above). The purified compound was added into the culture media with human hepatoma cell line HA22T/VGH to test for tumor cell survival. This survival assay was carried out with the abovementioned MTT assay, wherein the hepatoma cell line HA22T/VGH was obtained from Taipei Veteran General Hospital, the cell line originated from the human hepatoma.
(§2) The human hepatoma cell line HA22T/VGH was cultivated in DMEM media containing 100 IU/ml penicillin (Invitrogen, Carlsbad, Calif.), 100 μg/ml streptomycin (Invitrogen, Carlsbad, Calif.), 2 mM glutamin (Invitrogen, Carlsbad, Calif.), and 10% fetal calf serum (Atlanta Biologicals, Norcross, Ga.). The proliferated cells were treated with the compound in the concentration of 0 (the control group) and 5 μg/ml (the experimental group), respectively. The cells were incubated at 37° C. in a 5% CO2 incubator for 24-72 hours. 500 μg/ml of MTT was added into each well in the dark and incubated for 4 hours, followed by the addition of 500 μl of isopropanol to stop the reaction. The plates were read on an ELISA reader at wavelength of 570 nm to determine the survival rates.

[4] = tested on: human esophageal cancer cell line CE-81T/VGH; test: MTT cell survival assay, esophageal cancer cells; type: cell-based; details: 5 μg/ml, 72 hours
Protocol: The purified compound was added into the culture media with human esophageal cancer cell line CE-81T/VGH to test for tumor cell survival. This survival assay was carried out with the abovementioned MTT assay, wherein the CE-81T/VGH esophageal cancer cell line was obtained from Taipei Veteran General Hospital, the cell line originated from the epithelium of human esophageal cancer cells.
as §2, with “esophageal cancer” for “hepatoma”, “CE-81T/VGH” for “HA22T/VGH”

[5] = tested on: human leukemic cell line U937; test: Cell cycle analysis by flow cytometry; type: cell-based; details: 2.5 μg/ml, 48 hours
Protocol: Flow cytometer was used to analyze the effect of the compound on cell cycle of human leukemic cells.
The compound in concentration of 2.5 μg/ml was used to treat human leukemic cell line U937, and cells without addition of compound were served as the control group. The treated cells after 48 hours of treatment were fixed at 4° C. with 70% ethanol for 1 hour and stained for 30 minutes with propidium iodide solution (0.5 mg/ml of propidium iodide; 0.1 mg/ml of RNAse) contained in a CycleTEST PLUS DNA reagent kit (Becton Dickinson, Lincoln Park, N.J.). DNA content measurement on the collected 10^4 cells was performed on the FACS Calibur flow cytometer (Becton Dickinson), and the cell cycle changes were analyzed using a ModFit software (Becton Dickinson).

[6] = tested on: human leukemic cell U937; test: MTT cell survival assay, leukemic cells U937; type: cell-based
Protocol: Examples of the present invention adopted anti-tumor drugs screening model of National Cancer Institute (NCI) to examine inhibitory effect of the compound on cancer cells. The compound was added into culture medium containing leukemic cells U937 (a human monoblastoid leukemic cell line) to test for tumor cell survival. Cell survival rate is determined by well known MTT assay, and U937, a human myeloid leukemic cell line obtained from American Type Culture Collection (ATCC), is belonged to one of human acute leukemic cell lines and is classified as monoblasts during hematopoietic differentiation.
MTT assay is a commonly used method for analysis of percent of viable cells, wherein MTT (3-[4,5-dimethylthiazol-2-yl]2,5-diphenyltetrazolium bromide) is a yellow color dye that can be absorbed by living cells and be converted by mitochondria succinate tetrazolium reductase to water insoluble purple-blue formazan. Therefore, the amount of formazan formation can be used as an assessment tool to determine the survival rate of cells.
The human leukemia cell line U937 was cultivated in RPMI 1640 medium containing fetal calf serum for 24 hours and maintained in the exponential growth condition. The proliferating cells were treated with the compound in the concentration of 0 (the control group), 1.25, 2.5, 5 or 10 μg/ml at 37° C. under 5% CO2 for 24-72 hours, respectively. Then MTT was added in a concentration of 500 μg/ml into each wells in the dark and incubated for 4 hours, followed by the addition of 500 μl of isopropanol to stop the reaction. The plates were read on an ELISA reader at wavelength of 570 nm to determine the cell survival rates. The results were reported as the average±(plus/minus) SEM (Standard Error in the Mean). For statistical analysis, the t-test was used to compare the difference between each experiment result. p<0.05 was considered statistically significant.

[7] = tested on: human ovarian cancer cell line SKOV-3; test: MTT cell survival assay, ovarian cancer cells; type: cell-based; details: 5 μg/ml, 72 hours
Protocol: The test adopted the cell survival analysis (i.e. the MTT assay as described above). The purified compound was added into the culture media of human ovarian cancer cell line SKOV-3 to test for tumor cell survival. This survival assay was carried out with the abovementioned MTT assay, wherein the ovarian cancer cell line SKOV-3 was purchased from American Type Culture Collection (ATCC), the cell line originated from the epithelium of human ovarian cancer.
as §2, with “ovarian cancer” for “hepatoma”, “SKOV-3” for “HA22T/VGH”

[8] = tested on: U937, BxPC-3, CE-81T/VGH, HA22T/VGH and HeLa tumor cell lines; test: MTT assay, summary over the inhibited tumor cell lines; type: cell-based, human; details: range over U937, BxPC-3, CE-81T/VGH
[9] = tested on: human normal monocytes isolated from peripheral blood mononuclelar cells; test: Viability of human normal monocytes; type: cell-based; details: for effect on normal monocytes: normal human peripheral blood monocytes
Protocol: FIG. 4 is a morphological assessment of human normal peripheral blood monocytes treated by the compound. Liu's stain method was used for morphological observation. (A) Control group and (B) Experimental group (treated with 5 μg/ml of the compound for 1 day).

[10] = tested on: human cervical adenocarcinoma cell line HeLa; test: MTT cell survival assay, cervical adenocarcinoma cells; type: cell-based; details: 5 μg/ml, 72 hours
Protocol: as §1, with “cervical adenocarcinoma” for “pancreatic cancer”, “HeLa” for “BxPC-3”, “HeLa” for “BxPc-3”, “cervical adenocarcinoma.” for “pancreatic adenocarcinomas.”
as §2, with “cervical adenocarcinoma” for “hepatoma”, “HeLa” for “HA22T/VGH”

[11] = tested on: human leukemic cell U937; test: Mitochondria transmembrane potential, DiOC6(3) flow cytometry; type: cell-based; details: 5 μg/ml, 16 hours
Protocol: Human leukemic cell U937 was treated with the compound (5 μg/ml) for 16 hours. The same cells treated with anti-tumor agent camptothecin (4 μM) for 16 hours were used as positive control group, while untreated cells were used as control group. The cells were then washed with PBS solution, followed by addition of 40 nM 3,3′-dihexyloxacarbocyanine(DiOC6(3); Molecular Probes, Eugene, Oreg.) into culture medium at 37° C. in the dark and incubated for 15 minutes. The results were analyzed immediately using flow cytometry, wherein the excitation wavelength was set at 488 nm and emission wavelength set at 530 nm to detect fluorescence density and as representative of mitochondria transmembrane potential change.

[12] = tested on: tumor cells; test: DNA gel electrophoresis, inter-nucleosomal DNA cleavage; type: cell-based; details: 5 μg/ml; 24 hours; 1.5% agarose gel
Protocol: Lane 1, molecular marker; Lane 2, control group; Lane 3, experimental group (treated with 5 μg/ml of the compound for 24 hours).
In addition to the morphological changes described above, cells may show some biochemical changes during cell apoptosis, including chromatin condensation, formation of apoptotic body due to cell fragmentation, and inter-nucleosomal cleavage of DNA that leading to formation of DNA ladder in DNA electrophoresis. To confirm the relationship of inhibition activity between the compound and the stage of cell apoptosis, the experiment adopted DNA electrophoresis to examine inter-nucleosomal cleavage of DNA into DNA ladder at late stage of cell apoptosis.
Total DNAs were extracted and analyzed by 1.5% agarose gel electrophoresis in TBE buffer (5 mM TBE buffer containing 1 μM EDTA, pH 8.0). The gel was stained with ethidium bromide and visualized under UV.

SMILES	block of induced growth inhibition by caspase 3 and pan-caspase inhibitors [1]	inhibition rate ([2]; 5 μg/ml (summary))	highest inhibitory rate ([2]; 5 and 10 μg/ml groups, third day, highest rate)	inhibitory rate [3]	inhibitory rate [4]	cell cycle distribution [5]	inhibitory rate ([6]; U937, 1.25, 2.5, 5 and 10 μg/ml, all groups, third day)	inhibitory rate ([6]; U937, 5 and 10 μg/ml groups, third day)	highest inhibitory rate ([6]; U937, highest rate, 5 and 10 μg/ml groups, third day)	IC50 ([6]; U937 cells, MTT)	growth inhibition [7]	inhibition rate on tumor cell lines [8]	viability inhibition ([9]; human normal monocytes)	effect on normal monocytes [9]	effect on normal monocytes ([9]; listed as The compound)	inhibitory rate [10]	mitochondria transmembrane potential change [11]	genomic DNA fragmentation (DNA ladder) [12]
CC[C@@]1(O)C(=O)OCc2c1cc1n(c2=O)Cc2cc3ccccc3nc2-1 [camptothecin, reference compound]	could block	–	–	–	–	–	–	–	–	–	–	–	–	–	–	–	–	–
CC(C)=CCC[C@@H](CO)[C@H]1C[C@H](O)[C@@]2(C)C3=C(CC[C@]12C)[C@@]1(C)CC[C@H](O)C(C)(C)[C@@H]1CC3 [the compound, (22R)-5α-lanosta-8,24-dien-3β,15α,21-triol]	–	49.1%	48.5%	90.3%	61.4%	hypoploidy, G2/M phase arrest, and polyploidy	more than 60%	more than 95%	99.8%	about 2 μg/ml	could not inhibit the growth	48.5˜99.8%	< 10%	without toxicity to normal monocytes	no effect	56.8%	did not be exhibited significantly reduction of transmembrane potential	induced the genomic DNA into oligonucleosomal fragmentations
